Laboratory results taken from patent publication US20260356804A1, “SODIUM CHANNEL BLOCKING COMPOUNDS, DERIVATIVES THEREOF, AND METHODS OF THEIR USE” (LATIGO BIOTHERAPEUTICS, INC., priority 2022, published 2026).
Like-named read-outs stand apart in the source and are kept apart here.

Experiments:
human Nav1.8/β1 = biological target: T1, human Nav1.8/β1 (Homo sapiens, UniProt Q9Y5Y9); assay: Compound Profiling Human NaV1.8/β1 Cell Line—Sophion QPatch II Assay (automated patch clamp, stably transfected HEK293 cells); type: cell-based
T1 construct: host or cells: HEK293
Protocol: Compounds were tested on recombinant human Nav1.8/β1 stably transfected HEK293 (Eurofins, CYL3025, St. Charles, MO) cells using the QPatch II system (Sophion Bioscience A/S, Ballerup—Denmark), an automated patch clamp device. Cells were cultured at 37° C./5% CO2 in DMEM/F-12 supplemented with 10% fetal bovine serum, 1× Non-Essential Amino Acids, and selection antibiotics (0.625 μg/mL Puromycin, 400 μg/mL Geneticin, and 100 μg/mL Hygromycin). One or two days prior to recording, cells were moved to a lower temperature 30° C./5% CO2 incubator to increase surface expression of the channels. On the day of the recordings, cells in culture dishes were washed twice with Ca^2+—Mg^2+ free DPBS and treated with Detachin (Genlantis, San Diego) for 3 minutes and then resuspended in Serum Free Medium (EX-CELL® ACF CHO Medium for Cell Culture (Sigma-Aldrich) supplemented with 0.04 mg/mL soybean trypsin Inhibitor and 25 mM HEPES (all components supplied by Sigma-Aldrich, St. Louis, MO) and allowed to recover for a minimum of 20 minutes in the onboard QStirrer. All experiments were performed at ambient temperature. Intracellular solution contained (mM): CsCl, 50; CsF, 90; MgCl2, 2; EGTA, 5; HEPES, 10; pH adjusted to 7.2 with CsOH. Extracellular solution contained (mM): NaCl, 137; KCl, 4; CaCl2), 3.8; MgCl2, 1; HEPES, 10; Glucose, 10; pH adjusted to 7.4 with NaOH. [LEFT OUT].
Compounds were tested in an interleaved manner across two cohorts of wells to develop an aggregate 8-point concentration response curve. Final concentrations include 0.1% DMSO and 0.03% pluronic Acid. In general, the concentration range spans a range from 0.01-300 nM. Compounds were diluted 1:10 with extracellular solution within their respective cohort. DMSO (0.1% by volume) served as a vehicle control to ascertain assay performance.
(§1) Whole cell patch clamp recordings were conducted according to Sophion standard procedure for QPatch II®. Cells were held at a holding potential of −120 mV. A depolarizing step to 10 mV for 30 ms was applied to elicit inward Na^+ currents. Inter-sweep interval was 15 sec. Following establishment of the whole-cell configuration in extracellular solution, cells were washed twice in extracellular solution containing 0.1% DMSO and 0.03% pluronic acid to stabilize the baseline current. Compounds were then applied by the QPatch II system into each well in an ascending manner within cohort and the current was recorded for five minutes for each concentration. Percent of current remaining was determined by taking the average of the last 5 sweeps within each concentration and normalizing to the latest pre-compound saline period. The potency (IC50) values of the compounds were only assessed against resting state block. Wells whose initial sodium current magnitude were below 2 nA or whole cell resistance fell below 100 MΩ were excluded from analysis.
as §1, with “MO” for “MΩ”, “analysis. […]” for “analysis.”

human Nav1.8/b3 = biological target: T2, human Nav1.8/b3 (Homo sapiens, UniProt Q9Y5Y9); assay: Compound Profiling Human NaV1.8/β3 Cell Line—SyncroPatch384PE Assay (automated patch clamp, stably transfected CHO cells); type: cell-based; conditions: Nav1.8/b3 CHO cells
T2 construct: expressed in transfected cells; host or cells: CHO

[1] = P1, resting state block, Nav1.8/β1 HEK293 cells, holding potential −120 mV, first set of compounds, read-out: P1 (IC50, resting state block)
[2] = P1, resting state block, Nav1.8/β1 HEK293 cells, holding potential −120 mV, fourth set of compounds, read-out: P1 (IC50, resting state block)
[3] = P1 (IC50, resting state block), P1 measurement, resting state block, holding potential −120 mV, third set of compounds
[4] = P2 (IC50, inactivated state block), P2 measurement, inactivated state block, inactivation step −35 mV 10 sec, third set of compounds
[5] = P1 (IC50, resting state block), P1 measurement, resting state block, holding potential −120 mV, first set of compounds
[6] = P2 (IC50, inactivated state block), P2 measurement, inactivated state block, inactivation step −35 mV 10 sec, first set of compounds

T2 sequence (Q9Y5Y9 whole entry): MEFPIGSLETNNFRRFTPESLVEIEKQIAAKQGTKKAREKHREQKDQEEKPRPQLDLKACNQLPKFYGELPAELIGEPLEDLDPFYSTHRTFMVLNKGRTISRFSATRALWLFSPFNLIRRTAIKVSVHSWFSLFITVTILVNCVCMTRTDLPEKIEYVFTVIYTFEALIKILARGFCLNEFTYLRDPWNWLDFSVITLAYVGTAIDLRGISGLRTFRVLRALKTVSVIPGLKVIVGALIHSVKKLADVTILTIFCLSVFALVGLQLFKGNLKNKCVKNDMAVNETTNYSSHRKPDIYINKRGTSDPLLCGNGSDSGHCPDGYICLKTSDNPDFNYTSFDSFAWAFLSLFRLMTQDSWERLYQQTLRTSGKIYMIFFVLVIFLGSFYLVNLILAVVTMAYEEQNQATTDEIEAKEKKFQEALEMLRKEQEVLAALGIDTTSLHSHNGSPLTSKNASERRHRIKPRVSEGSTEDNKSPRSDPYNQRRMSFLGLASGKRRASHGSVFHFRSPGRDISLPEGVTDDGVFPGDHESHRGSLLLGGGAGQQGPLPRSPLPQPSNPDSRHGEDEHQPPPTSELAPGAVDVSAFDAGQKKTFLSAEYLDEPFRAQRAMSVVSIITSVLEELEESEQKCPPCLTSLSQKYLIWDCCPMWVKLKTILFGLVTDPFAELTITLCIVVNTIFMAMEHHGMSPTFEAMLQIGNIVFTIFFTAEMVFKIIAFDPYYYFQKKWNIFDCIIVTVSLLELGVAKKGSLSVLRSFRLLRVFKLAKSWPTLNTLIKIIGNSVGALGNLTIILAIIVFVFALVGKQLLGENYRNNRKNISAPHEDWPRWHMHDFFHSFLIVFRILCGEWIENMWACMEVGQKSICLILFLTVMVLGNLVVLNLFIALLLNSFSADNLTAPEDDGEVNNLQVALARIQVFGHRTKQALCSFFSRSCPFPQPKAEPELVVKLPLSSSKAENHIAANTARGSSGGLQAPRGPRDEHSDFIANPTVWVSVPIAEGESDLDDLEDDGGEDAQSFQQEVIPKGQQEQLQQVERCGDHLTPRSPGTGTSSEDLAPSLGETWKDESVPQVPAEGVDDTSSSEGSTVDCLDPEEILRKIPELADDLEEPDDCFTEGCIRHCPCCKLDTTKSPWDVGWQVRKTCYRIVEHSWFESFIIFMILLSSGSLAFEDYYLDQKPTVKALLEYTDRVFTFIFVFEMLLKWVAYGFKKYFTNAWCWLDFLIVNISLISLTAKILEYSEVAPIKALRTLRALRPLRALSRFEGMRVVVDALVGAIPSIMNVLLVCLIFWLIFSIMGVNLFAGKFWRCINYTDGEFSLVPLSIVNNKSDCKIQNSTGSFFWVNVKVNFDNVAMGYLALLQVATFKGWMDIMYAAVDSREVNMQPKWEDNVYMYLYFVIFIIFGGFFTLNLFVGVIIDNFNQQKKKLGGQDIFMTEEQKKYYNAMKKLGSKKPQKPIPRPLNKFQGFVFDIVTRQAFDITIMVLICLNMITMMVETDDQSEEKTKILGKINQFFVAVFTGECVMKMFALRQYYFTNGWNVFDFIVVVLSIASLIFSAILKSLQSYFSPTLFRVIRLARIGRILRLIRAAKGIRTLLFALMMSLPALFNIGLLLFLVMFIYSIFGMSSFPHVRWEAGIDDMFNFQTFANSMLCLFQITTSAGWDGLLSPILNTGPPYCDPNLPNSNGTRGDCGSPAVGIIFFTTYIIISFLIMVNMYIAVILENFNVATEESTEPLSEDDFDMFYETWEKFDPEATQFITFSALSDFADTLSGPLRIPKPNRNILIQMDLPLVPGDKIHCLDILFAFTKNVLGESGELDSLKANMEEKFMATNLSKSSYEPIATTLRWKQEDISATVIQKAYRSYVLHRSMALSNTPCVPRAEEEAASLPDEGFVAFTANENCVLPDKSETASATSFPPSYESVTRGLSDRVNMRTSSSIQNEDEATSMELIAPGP
T2 sequence (Q9NY72 23-215 partner): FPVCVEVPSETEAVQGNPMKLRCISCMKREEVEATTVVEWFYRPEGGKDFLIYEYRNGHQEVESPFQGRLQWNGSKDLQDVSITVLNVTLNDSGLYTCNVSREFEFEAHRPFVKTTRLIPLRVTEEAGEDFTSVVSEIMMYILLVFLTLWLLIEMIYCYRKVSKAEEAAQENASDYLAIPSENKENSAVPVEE
T1 sequence (Q9Y5Y9 whole entry): as the sequence (Q9Y5Y9 whole entry) above
T1 sequence (Q07699 19-218 partner): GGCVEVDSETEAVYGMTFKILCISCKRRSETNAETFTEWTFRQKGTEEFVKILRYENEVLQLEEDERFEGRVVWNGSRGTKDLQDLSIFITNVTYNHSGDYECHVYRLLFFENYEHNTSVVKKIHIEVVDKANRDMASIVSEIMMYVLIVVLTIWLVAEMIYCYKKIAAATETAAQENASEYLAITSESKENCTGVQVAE

SMILES: COc1cc(C#N)ccc1Oc1cc(C(F)(F)F)c(Cl)cc1C(=O)Nc1cccc([S@@](C)(=N)=O)c1 [Example 25A]
- IC50 (human Nav1.8/β1): > 0.2 µM

SMILES: Cc1cc(F)ncc1Oc1cc(C(F)(F)F)c(Cl)cc1C(=O)Nc1cccc([S@@](C)(=N)=O)c1 [Example 21A]
- IC50 (human Nav1.8/β1; [1]): 0.1 to 0.2 µM

SMILES: CNCCCS(=N)(=O)c1cccc(NC(=O)c2c(Oc3ccc(C#N)cc3OC)ncc(C(F)(F)F)c2C)c1 (stereo not shown) [Example 60C]
- IC50 (human Nav1.8/β1): < 0.005 µM

SMILES: CNCC[S@](=N)(=O)c1cccc(NC(=O)c2c(Oc3ccc(F)nc3C)ncc(C(F)(F)F)c2C)c1 [Example 65C]
- IC50 (human Nav1.8/β1): 0.005 to 0.05 µM

SMILES: Cc1nc(F)ccc1Oc1ncc(C(F)(F)F)c(C)c1C(=O)Nc1cccc([S@](=N)(=O)CCO)c1 [Example 67C]
- IC50 (human Nav1.8/β1): 0.005 to 0.05 µM

SMILES: Cc1nc(F)ccc1Oc1ncc(C(F)(F)F)c(C)c1C(=O)Nc1cccc(S2(=O)=NC(=O)CC2)c1 (single isomer, unassigned) [Example 30D, 2-((6-fluoro-2-methylpyridin-3-yl)oxy)-4-methyl-N-(3-(1-oxido-3-oxo-4,5-dihydro-3H-1l6-isothiazol-1-yl)phenyl)-5-(trifluoromethyl)nicotinamide]
- IC50 (human Nav1.8/β1; [2]): > 0.2 µM

SMILES: Cc1nc(F)ccc1Oc1ncc(C(F)(F)F)c(C)c1C(=O)N(C)c1cccc([S@](C)(=N)=O)c1 [Example 46C, (R)-2-((6-fluoro-2-methylpyridin-3-yl)oxy)-N,4-dimethyl-N-(3-(S-methylsulfonimidoyl)phenyl)-5-(trifluoromethyl)nicotinamide]
- IC50 (human Nav1.8/β1): > 0.2 µM

SMILES: Cc1nc(F)ccc1Oc1ncc(C(F)(F)F)c(C)c1C(=O)N[C@H]1C[C@@H](C(N)=O)C1 [Example 85C]
- IC50 (human Nav1.8/β1): > 0.2 µM

SMILES: Cc1nc(F)ccc1Oc1ncc(C(F)(F)F)c(C)c1C(=O)Nc1cccc(S2(=O)=NC(=O)CC2)c1 (single isomer, unassigned) [Example 31D, 2-((6-fluoro-2-methylpyridin-3-yl)oxy)-4-methyl-N-(3-(1-oxido-3-oxo-4,5-dihydro-3H-1l6-isothiazol-1-yl)phenyl)-5-(trifluoromethyl)nicotinamide]
- IC50 (human Nav1.8/β1; [2]): 0.05 to 0.1 µM

SMILES: COc1cc(C#N)ccc1Oc1ncc(C(F)(F)F)c(C)c1C(=O)Nc1cccc(S(=N)(=O)CCCN(C)C)c1 (stereo not shown) [Example 59C]
- IC50 (human Nav1.8/β1): 0.005 to 0.05 µM

SMILES: Cc1nc(F)ccc1Oc1ncc(C(F)(F)F)c(C)c1C(=O)Nc1cccc(S(=N)(=O)CC(C)(C)N)c1 (stereo not shown) [Example 53C]
- IC50 (human Nav1.8/β1): 0.005 to 0.05 µM

SMILES: COc1cc(C#N)ccc1Oc1cc(C(F)(F)F)c(Cl)cc1C(=O)Nc1ccc(F)c([S@@](C)(=N)=O)c1 [Example 26A]
- IC50 (human Nav1.8/β1): > 0.2 µM

SMILES: Cc1cc(F)ncc1Oc1cc(C(F)(F)F)c(Cl)cc1C(=O)Nc1ccc(F)c([S@@](C)(=N)=O)c1 [Example 23A]
- IC50 (human Nav1.8/β1; [1]): > 0.2 µM

SMILES: Cc1c(C(F)(F)F)cnc(Oc2ccc(F)nc2CO)c1C(=O)Nc1cccc([S@](C)(=N)=O)c1 [Example 89C]
- IC50 (human Nav1.8/β1): > 0.2 µM

SMILES: Cc1nc(F)ccc1Oc1ncc(C(F)(F)F)c(C)c1C(=O)Nc1cccc([S@](=N)(=O)CCCO)c1 [Example 69C]
- IC50 (human Nav1.8/β1): 0.1 to 0.2 µM

SMILES: Cc1nc(F)ccc1Oc1cc(C(F)(F)F)ccc1C(=O)Nc1ccnc([S@@](C)(=N)=O)c1 [Example 18A]
- IC50 (human Nav1.8/β1; [1]): > 0.2 µM

SMILES: Cc1nc(F)ccc1Oc1ncc(C(F)(F)F)c(C)c1C(=O)Nc1cccc(S(=O)(=O)CCCO)c1 [Example 70C]
- IC50 (human Nav1.8/β1): 0.1 to 0.2 µM

SMILES: Cc1nc(F)ccc1Oc1cc(C(F)(F)F)ccc1C(=O)Nc1ccnc([S@](C)(=N)=O)c1 [Example 28A]
- IC50 (human Nav1.8/β1): > 0.2 µM

SMILES: CNC(C)(C)CCS(=N)(=O)c1cccc(NC(=O)c2c(Oc3ccc(F)nc3C)ncc(C(F)(F)F)c2C)c1 (stereo not shown) [Example 50C]
- IC50 (human Nav1.8/β1): 0.005 to 0.05 µM

SMILES: Cc1nc(F)ccc1Oc1ncc(C(F)(F)F)c(C)c1C(=O)Nc1cccc([S@](=N)(=O)CCN(C)C)c1 [Example 76C]
- IC50 (human Nav1.8/β1): 0.005 to 0.05 µM

SMILES: Cc1c(C(F)(F)F)cnc(Oc2ccc(F)nc2CO)c1C(=O)Nc1cccc([S@@](C)(=N)=O)c1 [Example 83C]
- IC50 (human Nav1.8/β1): > 0.2 µM

SMILES: Cc1nc(F)ccc1Oc1cc(C(F)(F)F)c(Cl)cc1C(=O)Nc1ccnc([S@@](C)(=N)=O)c1 [Example 77C]
- IC50 (human Nav1.8/β1; P1, resting state block, Nav1.8/β1 HEK293 cells, holding potential −120 mV, third set of compounds, read-out: P1 (IC50, resting state block)): > 0.2 µM

SMILES: CNCCS(=N)(=O)c1cccc(NC(=O)c2c(Oc3ccc(F)nc3C)ncc(C(F)(F)F)c2C)c1 (stereo not shown) [Example 78C]
- IC50 (human Nav1.8/β1): 0.005 to 0.05 µM

SMILES: Cc1cc(F)ncc1Oc1cc(C(F)(F)F)c(Cl)cc1C(=O)Nc1ccnc([S@](C)(=N)=O)c1 [Example 20A]
- IC50 (human Nav1.8/β1; [1]): 0.1 to 0.2 µM

SMILES: CNCCCS(=N)(=O)c1cccc(NC(=O)c2c(Oc3ccc(F)cc3C)ncc(C(F)(F)F)c2C)c1 (stereo not shown) [Example 56C]
- IC50 (human Nav1.8/β1): 0.005 to 0.05 µM

SMILES: Cc1cc(F)ncc1Oc1cc(C(F)(F)F)c(Cl)cc1C(=O)Nc1cccc([S@](C)(=N)=O)c1 [Example 22A]
- IC50 (human Nav1.8/β1; [1]): 0.05 to 0.1 µM

SMILES: COc1cc(Br)ccc1Oc1cc(C(F)(F)F)c(Cl)cc1C(=O)Nc1ccnc([S@@](C)(=N)=O)c1 [Example 16A]
- IC50 (human Nav1.8/β1; [1]): < 0.005 µM

SMILES: Cc1nc(F)ccc1Oc1ncc(C(F)(F)F)c(C)c1C(=O)Nc1cccc(S(=N)(=O)CCC(C)(C)N)c1 (stereo not shown) [Example 52C]
- IC50 (human Nav1.8/β1): 0.005 to 0.05 µM

SMILES: Cc1nc(F)ccc1Oc1ncc(C(F)(F)F)c(C)c1C(=O)Nc1cncc([S@](C)(=N)=O)c1 [Example 61C]
- IC50 (human Nav1.8/β1): 0.1 to 0.2 µM

SMILES: Cc1nc(F)ccc1Oc1cc(C(F)(F)F)c(Cl)cc1C(=O)Nc1ccnc(S(C)(=O)=O)c1 [Example 17A]
- IC50 (human Nav1.8/β1): 0.005 to 0.05 µM

SMILES: COc1cc(C#N)ccc1Oc1ncc(Br)c(C)c1C(=O)Nc1cccc([S@](C)(=N)=O)c1 [Example 24C, (R)-5-bromo-2-(4-cyano-2-methoxyphenoxy)-4-methyl-N-(3-(S-methylsulfonimidoyl)phenyl)nicotinamide]
- IC50 (human Nav1.8/b3; [3]): < 0.005 µM
- IC50 (human Nav1.8/b3; [4]): < 0.005 µM

SMILES: Cc1nc(F)ccc1Oc1cc(C(F)(F)F)c(Cl)c(F)c1C(=O)Nc1ccnc([S@@](C)(=N)=O)c1 [Example 34A]
- IC50 (human Nav1.8/b3; [5]): < 0.005 µM
- IC50 (human Nav1.8/b3; [6]): < 0.005 µM

SMILES: Cc1nc(F)ccc1Oc1cc(C(F)(F)F)c(Cl)c(C)c1C(=O)Nc1ccnc(C(N)=O)c1 [Example 62A]
- IC50 (human Nav1.8/b3; [5]): < 0.005 µM
- IC50 (human Nav1.8/b3; [6]): < 0.005 µM

SMILES: Cc1nc(F)ccc1Oc1ncc(C(F)(F)F)c(C)c1C(=O)Nc1ccc(C(N)=O)cc1 [Example 118C]
- IC50 (human Nav1.8/b3; [3]): < 0.005 µM
- IC50 (human Nav1.8/b3; [4]): < 0.005 µM

SMILES: Cc1nc(F)ccc1Oc1cc(C(F)(F)F)c(Cl)cc1C(=O)Nc1cccc(C(N)=O)c1 [Example 73A]
- IC50 (human Nav1.8/b3; [5]): < 0.005 µM
- IC50 (human Nav1.8/b3; [6]): < 0.005 µM

SMILES: Cc1nc(F)ccc1Oc1ncc(C2CC2)c(C)c1C(=O)Nc1cccc([S@](C)(=N)=O)c1 [Example 12C, (R)-5-cyclopropyl-2-((6-fluoro-2-methylpyridin-3-yl)oxy)-4-methyl-N-(3-(S-methylsulfonimidoyl)phenyl)nicotinamide]
- IC50 (human Nav1.8/b3; [3]): 0.05 to 0.1 µM
- IC50 (human Nav1.8/b3; [4]): 0.05 to 0.1 µM

SMILES: CNCCN=[S@](C)(=O)c1cccc(NC(=O)c2c(Oc3ccc(F)nc3C)ncc(C(F)(F)F)c2C)c1 [Example 109C]
- IC50 (human Nav1.8/b3; P1 measurement, resting state block, holding potential −120 mV, third set of compounds, read-out: P1 (IC50, resting state block)): < 0.005 µM
- IC50 (human Nav1.8/b3; P2 measurement, inactivated state block, inactivation step −35 mV 10 sec, third set of compounds, read-out: P2 (IC50, inactivated state block)): < 0.005 µM

SMILES: Cc1nc(O)ccc1Oc1ncc(C(F)(F)F)c(C)c1C(=O)Nc1cccc([S@](C)(=N)=O)c1 [Example 117C]
- IC50 (human Nav1.8/b3; [3]): > 0.2 µM
- IC50 (human Nav1.8/b3; [4]): > 0.2 µM
